{"source": "patent US6160008A", "about": "“Pharmaceutical compositions comprising S-alkylisothiouronium derivatives” (priority 1996, dated 2000)", "key": {"[1]": {"system": "acid-base balance and gas composition of mixed venous blood", "assay": "Acid-base balance and gas composition of mixed venous blood in hemorrhagic shock (Table 7)", "assay_type": "in vivo, cats", "conditions": "5 mg/kg i.v.; for Bicarbonate ion content (HCO3 a) / Buffer bases (BBa) / Buffer bases shift (BBa) / Carbonic acid gas tension (PaCO2): mixed venous blood", "description": "The influence of S-ethylisothiouronium diethylphosphate on the major indices of the blood acid-base state (AAS) and gas content in hemorrhagic shock was studied at a dose of 5 mg/kg. The cats were narcotized intraperitoneally with pentobarbital sodium (nembutal) at a dose of 40 mg/kg. The blood loss was caused by blood-letting from the common carotid artery in an amount of 3.2% of the animal body mass, which approximately corresponds to 45-47% of the blood circulation volume. The blood-letting was carried out during 3-5 minutes. Tension characteristics of oxygen and carbon dioxide in arterial (PaO2, PaCO2) and mixed venous (PvO2, PvCO2) blood, pHa and pH were studied by Astrup micromethod. The hemoglobin content (Hb) was determined by the cianohemoglobin method. Bicarbonate ion content /HCO3 was calculated with the help of the Severinghause ruler. Calculations were carried out on the CM-1403-02 computer in the Forhtran language program. Indices of the acid-base balance and blood gas content were studied in the initial state, on the 30th minute after acute bleeding as well as on 2nd, 10th, 30th, and 60th minute after the medicine injection. The substance was injected singly intravenously on the 30th minute after the blood-letting.\nIn the test group (n=6), S-ethylisothiouronium diethylphosphate was injected at a dose of 5 mg/kg."}, "[2]": {"assay": "Biochemical tests of dog blood serum and general toxicity, 3-day experiment (Tables 10-14)", "assay_type": "in vivo", "conditions": "10 mg/kg i.v. daily, 3 days, dogs", "description": "In an experiment on dogs, the functional condition of the organism was estimated by biochemical tests, after the intravenous injection of a 10% solution S-ethylisothiouronium diethylphosphate, at a dose of 10 mg/kg daily. This experiment was conducted at the same time of the day. Blood was examined 1 hour after the administration of the preparation during 3 successive days and on the 4th, the 5th and on the 10th day after injection. The concentrations of total protein, of albumin, globulins, total cholesterol, and glucose in dog blood serum were determined by conventional methods. The total protein content was determined by biureth method, total cholesterol--by like method, glucose--by glucose-oxidase method.\nThe general toxicity and biochemical parameters were determined in a 3-day experiment, where a 10% solution of the preparation was daily intravenously injectioned at a dose of 10 mg/kg."}, "[3]": {"assay": "Pathomorphological examination of internal organs", "assay_type": "in vivo, mice, dogs", "conditions": "mean lethal and sublethal doses", "description": "The disturbance to blood circulation has a reversible character and as a rule, it normalized within 7-10 days after the preparation had no longer any effect."}}, "note": "Entries after “also recorded” stand apart in the source; their conditions may differ."}
{"smiles": "CCSC(=N)N", "note": "[S-ethylisothiouronium diethylphosphate]", "values": [{"measurement": "Oxygen tension (PvO2)", "setting": "[1]; 10 min", "value": "41.866 ± 11.242"}, {"measurement": "pHv", "setting": "[1]; 10 min after injection", "value": "7.252 ± 0.011"}, {"measurement": "Oxygen tension (PvO2)", "setting": "[1]; 30 min", "value": "40.533 ± 11.332"}, {"measurement": "pHv", "setting": "[1]; 30 min after injection", "value": "7.222 ± 0.016"}, {"measurement": "Oxygen tension (PvO2)", "setting": "[1]; 60 min", "value": "27.783 ± 4.824"}, {"measurement": "pHv", "setting": "[1]; 60 min after injection", "value": "7.150 ± 0.130"}, {"measurement": "Bicarbonate ion content (HCO3 a)", "setting": "[1]; 10 min", "value": "17.116 ± 1.576", "unit": "mmol/L"}, {"measurement": "Buffer bases (BBa)", "setting": "[1]; 10 min", "value": "34.500 ± 2.342", "unit": "mmol/L"}, {"measurement": "Buffer bases shift (BBa)", "setting": "[1]; 10 min", "value": "-8.500 ± 1.491", "unit": "mmol/L"}, {"measurement": "Carbonic acid gas tension (PaCO2)", "setting": "[1]; 10 min", "value": "40.516 ± 4.340", "unit": "mm Hg"}, {"measurement": "Bicarbonate ion content (HCO3 a)", "setting": "[1]; 30 min", "value": "16.150 ± 1.951", "unit": "mmol/L"}, {"measurement": "Buffer bases (BBa)", "setting": "[1]; 30 min", "value": "32.266 ± 3.254", "unit": "mmol/L"}, {"measurement": "Buffer bases shift (BBa)", "setting": "[1]; 30 min", "value": "-9.966 ± 1.388", "unit": "mmol/L"}, {"measurement": "Carbonic acid gas tension (PaCO2)", "setting": "[1]; 30 min", "value": "40.350 ± 4.611", "unit": "mm Hg"}, {"measurement": "Bicarbonate ion content (HCO3 a)", "setting": "[1]; 60 min", "value": "17.800 ± 2.162", "unit": "mmol/L"}, {"measurement": "Buffer bases (BBa)", "setting": "[1]; 60 min", "value": "33.833 ± 3.943", "unit": "mmol/L"}, {"measurement": "Buffer bases shift (BBa)", "setting": "[1]; 60 min", "value": "-11.266 ± 2.569", "unit": "mmol/L"}, {"measurement": "Carbonic acid gas tension (PaCO2)", "setting": "[1]; 60 min", "value": "55.533 ± 5.049", "unit": "mm Hg"}, {"measurement": "General toxicity and serum biochemistry in words", "setting": "[2]", "value": "wavy fluctuations with the tendency to decrease on the 4th and 5th day; also recorded: The level of albumins and globulins also changed in a wavy manner; also recorded: The level of total cholesterol and glucose had slight fluctuations which did not overstep the fluctuation limits of healthy dogs; also recorded: no evidence was found for intoxication or any significant deviation between the parameters studied and the initial data; also recorded: individual sensitivity of the animals to intravenous injection of the preparation was not found"}, {"measurement": "Pathomorphological findings", "setting": "[3]", "value": "moderately pronounced signs of hemodynamic disturbance; also recorded: No prounced inflammatory, distrophic or necrobiotic changes of internal organs were observed; also recorded: In some cases, signs of compensatory-adaptation reactions of liver"}, {"measurement": "Time to normalization of blood circulation disturbance", "setting": "[3]", "value": "7 to 10", "unit": "days"}]}
